Source: patent publication US20170106011A1, “METHODS OF TREATING TRAUMATIC BRAIN INJURY AND SEQUELAE” (Cantex Pharmaceuticals, Inc., priority 2015, published 2017)
Entries after “also recorded” stand apart in the source; their conditions may differ.

Key:
[1] = comparator, Rao et al. 2010; cited from earlier work
[2] = tested on: patients with moderate TBI; test: clinical trial of ODSH infusion in moderate TBI; assay type: in vivo; details: ODSH infusion added to best supportive care
Procedure: FIG. 4 outlines the phase II clinical trial of ODSH for treating TBI.
A clinical trial is conducted.
Enrollment criteria are (i) moderate TBI: Glasgow Coma Score (GCS) of 9-12, or if patient is intubated, GCS 7-9; (ii) cerebral contusions on CT scan. Patients are randomized into 2 groups. Both groups receive best supportive care. This is an active treatment control. One group additionally receives infusion of ODSH.

[3] = tested on: middle cerebral artery occlusion animal model; test: secondary brain injury after middle cerebral artery occlusion in an animal model; assay type: in vivo
USP anticoagulant assay = assay type: biochemical

| Substance | activity in the USP anticoagulant assay [1] | inflammatory biomarkers [2] | Glasgow Outcome Scale scores ([2]; at 6 months) | Montreal Cognitive Assessment (MoCA) score ([2]; six months post-injury) | secondary brain injury [3] | anticoagulant activity in the USP anticoagulant assay (USP anticoagulant assay) | anticoagulant activity in the USP anticoagulant assay (e.g. value) (USP anticoagulant assay) [U] |
| --- | --- | --- | --- | --- | --- | --- | --- |
| unfractionated heparin | 165-190 U/mg |  |  |  |  |  |  |
| 2-O, 3-O-desulfated heparin [ODSH] |  | reduces | improves | improves | reduction of secondary brain injury; also recorded: reduced secondary brain injury | less than 9 U/mg | 7±0.3 |
